The structures appear in SMILES notation.

The test has as its target T1, human PDE5 (Homo sapiens, UniProt O76074).
T1 construct: from tissue; host or cells: platelets from fresh blood of human donors (lysate, 10,000 g supernatant)
The test can be described thus: Inhibition of the type 5 phosphodiesterase (PDE5) activity, modified SPA test with platelet lysate. It counts as biochemical. To be noted: PDE5 from human platelet lysate, 0.5 μM cGMP. In outline:
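Human platelet lysate (10,000 g supernatant) as PDE5 source in SPA with 0.5 μM cGMP plus [3H]cGMP tracer, pH 7.4, 5 mM Mg2+, 1 μM motapizone and 10 nM PDE2 inhibitor; 10–20% conversion. 5 min preincubation, 15 min at 37 °C, stopped with SPA beads/IBMX. IC50 by non-linear regression.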
As usually defined, the IC50 is the concentration at which inhibition is half-maximal. Low readings indicate greater potency in that assay, high ones weaker potency in that assay. `COc1ccc(-c2ncnc3c(C(=O)NC4CCN(C(=O)[C@H](C)O)CC4)c[nH]c23)c(OCC2CC2)c1` [Example 206, 4-(2-Cyclopropylmethoxy-4-methoxy-phenyl)-5H-pyrrolo[3,2-d]pyrimidine-7-carboxylic acid [1-((S)-2-hydroxy-propanoyl)piperidin-4-yl]-amide] gave an IC50 of 0.661 nM.
`COc1ccc(-c2ncnc3c(C(=O)NC4CCN(C(=O)C5(O)CC5)CC4)c[nH]c23)c(OCC2CC2)c1` [Example 207, 4-(2-Cyclopropylmethoxy-4-methoxy-phenyl)-5H-pyrrolo[3,2-d]pyrimidine-7-carboxylic acid {1-[1-(1-hydroxy-cyclopropyl)-methanoyl]-piperidin-4-yl}-amide]: the IC50 is 0.245 nM.
Consider `COc1ccc(OCC2CC2)c(-c2ncnc3c(C(=O)N[C@H]4CC[C@@H](NC(=O)CO)CC4)c[nH]c23)c1` [Example 208, cis-4-(2-Cyclopropylmethoxy-5-methoxy-phenyl)-5H-pyrrolo[3,2-d]pyrimidine-7-carboxylic acid [4-(2-hydroxy-acetylamino)-cyclohexyl]-amide], for which half-maximal inhibition (IC50) required 1.86 nM.
Consider `COc1ccc(OCC2CC2)c(-c2ncnc3c(C(=O)N[C@H]4CC[C@@H](NC(=O)C5(O)CC5)CC4)c[nH]c23)c1` [Example 209, cis-4-(2-Cyclopropylmethoxy-5-methoxy-phenyl)-5H-pyrrolo[3,2-d]pyrimidine-7-carboxylic acid {4-[(1-hydroxy-cyclopropanecarbonyl)-amino]-cyclohexyl}-amide], for which the IC50 was 0.692 nM.
Take `COc1ccc(OCC2CC2)c(-c2ncnc3c(C(=O)N[C@H]4CC[C@H](NC(=O)C5(O)CC5)CC4)c[nH]c23)c1` [Example 210, trans-4-(2-Cyclopropylmethoxy-5-methoxy-phenyl)-5H-pyrrolo[3,2-d]pyrimidine-7-carboxylic acid {4-[(1-hydroxy-cyclopropanecarbonyl)-amino]-cyclohexyl}-amide]: the midpoint of inhibition, the IC50, lay at 0.646 nM.
Compound `COc1ccc(OCC2CC2)c(-c2ncnc3c(C(=O)NC4CCN(C(=O)CO)CC4)c[nH]c23)c1` [Example 211, 4-(2-Cyclopropylmethoxy-5-methoxy-phenyl)-5H-pyrrolo[3,2-d]pyrimidine-7-carboxylic acid [1-(2-hydroxy-acetyl)piperidin-4-yl]-amide] gave an IC50 of 2.34 nM.
Compound `COc1ccc(OCC2CC2)c(-c2ncnc3c(C(=O)NC4CCN(C(=O)[C@H](C)O)CC4)c[nH]c23)c1` [Example 212, 4-(2-Cyclopropylmethoxy-5-methoxy-phenyl)-5H-pyrrolo[3,2-d]pyrimidine-7-carboxylic acid [1-((S)-2-hydroxy-propionyl)piperidin-4-yl]-amide] gave an IC50 of 1.07 nM.
The compound `COc1ccc(OCC2CC2)c(-c2ncnc3c(C(=O)NC4CCN(C(=O)C5(O)CC5)CC4)c[nH]c23)c1` [Example 213, 4-(2-Cyclopropylmethoxy-5-methoxy-phenyl)-5H-pyrrolo[3,2-d]pyrimidine-7-carboxylic acid [1-(1-hydroxy-cyclopropanecarbonyl)-piperidin-4-yl]-amide] gave an IC50 of 0.55 nM.
Regarding `O=C(CO)N[C@H]1CC[C@@H](NC(=O)c2c[nH]c3c(-c4ccc(F)cc4OCC4CC4)ncnc23)CC1` [Example 214, cis-4-(2-Cyclopropylmethoxy-4-fluoro-phenyl)-5H-pyrrolo[3,2-d]pyrimidine-7-carboxylic acid [4-(2-hydroxy-acetylamino)-cyclohexyl]-amide], it took 2.63 nM to reach half-maximal inhibition (IC50).
The same measure for `C[C@H](O)C(=O)N[C@H]1CC[C@@H](NC(=O)c2c[nH]c3c(-c4ccc(F)cc4OCC4CC4)ncnc23)CC1` [Example 215, cis-4-(2-Cyclopropylmethoxy-4-fluoro-phenyl)-5H-pyrrolo[3,2-d]pyrimidine-7-carboxylic acid [4-((S)-2-hydroxy-propionylamino)-cyclohexyl]-amide]: 2.57 nM.
Under `O=C(N[C@H]1CC[C@@H](NC(=O)C2(O)CC2)CC1)c1c[nH]c2c(-c3ccc(F)cc3OCC3CC3)ncnc12` [Example 216, cis-4-(2-Cyclopropylmethoxy-4-fluoro-phenyl)-5H-pyrrolo[3,2-d]pyrimidine-7-carboxylic acid {4-[(1-hydroxy-cyclopropanecarbonyl)-amino]-cyclohexyl}-amide] stands 1.51 nM; under `O=C(CO)N[C@H]1CC[C@H](NC(=O)c2c[nH]c3c(-c4ccc(F)cc4OCC4CC4)ncnc23)CC1` [Example 217, trans-4-(2-Cyclopropylmethoxy-4-fluoro-phenyl)-5H-pyrrolo[3,2-d]pyrimidine-7-carboxylic acid [4-(2-hydroxy-acetylamino)-cyclohexyl]-amide], 2.24 nM; under `C[C@H](O)C(=O)N[C@H]1CC[C@H](NC(=O)c2c[nH]c3c(-c4ccc(F)cc4OCC4CC4)ncnc23)CC1` [Example 218, trans-4-(2-Cyclopropylmethoxy-4-fluoro-phenyl)-5H-pyrrolo[3,2-d]pyrimidine-7-carboxylic acid [4-((S)-2-hydroxy-propionylamino)-cyclohexyl]-amide], 2.51 nM.
As for `O=C(N[C@H]1CC[C@H](NC(=O)C2(O)CC2)CC1)c1c[nH]c2c(-c3ccc(F)cc3OCC3CC3)ncnc12` [Example 219, trans-4-(2-Cyclopropylmethoxy-4-fluoro-phenyl)-5H-pyrrolo[3,2-d]pyrimidine-7-carboxylic acid {4-[(1-hydroxy-cyclopropanecarbonyl)-amino]-cyclohexyl}-amide], the concentration for half-maximal inhibition (IC50) is 2 nM.
On to `O=C(NC1CCN(C(=O)CO)CC1)c1c[nH]c2c(-c3cc(F)ccc3OCC3CC3)ncnc12` [Example 220, 4-(2-Cyclopropylmethoxy-5-fluoro-phenyl)-5H-pyrrolo[3,2-d]pyrimidine-7-carboxylic acid [1-(2-hydroxy-acetyl)piperidin-4-yl]-amide], for which half-maximal inhibition (IC50) was put at 7.41 nM.
For the compound `C[C@H](O)C(=O)N1CCC(NC(=O)c2c[nH]c3c(-c4cc(F)ccc4OCC4CC4)ncnc23)CC1` [Example 221, 4-(2-Cyclopropylmethoxy-5-fluoro-phenyl)-5H-pyrrolo[3,2-d]pyrimidine-7-carboxylic acid [1-((S)-2-hydroxy-propionyl)piperidin-4-yl]-amide], the half-inhibitory concentration (IC50) was 6.46 nM.
The same measure for `O=C(CO)N[C@H]1CC[C@H](NC(=O)c2c[nH]c3c(-c4cc(F)ccc4OCC4CC4)ncnc23)CC1` [Example 222, trans-4-(2-Cyclopropylmethoxy-5-fluoro-phenyl)-5H-pyrrolo[3,2-d]pyrimidine-7-carboxylic acid [4-(2-hydroxy-acetylamino)-cyclohexyl]-amide]: 1.91 nM.
On to `O=C(CO)N[C@H]1CC[C@H](NC(=O)c2c[nH]c3c(-c4ccccc4OCC4CC4)ncnc23)CC1` [Example 224, trans-4-(2-Cyclopropylmethoxy-phenyl)-5H-pyrrolo[3,2-d]pyrimidine-7-carboxylic acid [4-(2-hydroxy-acetylamino)-cyclohexyl]-amide], for which half-maximal inhibition (IC50) required 6.92 nM.
On to `C[C@H](O)C(=O)N[C@H]1CC[C@H](NC(=O)c2c[nH]c3c(-c4ccccc4OCC4CC4)ncnc23)CC1` [Example 225, trans-4-(2-Cyclopropylmethoxy-phenyl)-5H-pyrrolo[3,2-d]pyrimidine-7-carboxylic acid [4-((S)-2-hydroxy-propionylamino)-cyclohexyl]-amide], for which the IC50 was 7.08 nM.

(Values after patent US8445501B2, “Substituted 7-carboxamido-pyrrolo[3,2-d]pyrimidines” (Takeda GmbH, priority 2008, dated 2013).)
